Results published in patent publication US20240263147A1, “CARDIAC ORGANOID AND ANTI-ELECTRO-MITOCHONDRIAL DESYNCHRONIZATION THERAPY” (YISSUM RESEARCH DEVELOPMENT COMPANY OF THE HEBREW …, priority 2021, published 2024).
Entries after “also recorded” stand apart in the source; their conditions may differ.

Legend:
Assay type in all cases: cell-based, human
[1] = system: vascularized cardiac organoids; assay: Metabolic flux balance analysis and ATP production in cardiac organoids; settings: 10 μM KB-R7943, within 20 minutes of exposure
Protocol: Amperometric 4-analytes sensors (B.LV5) were purchased from Innovative Sensor Technology (IST, Switzerland). Measurements were carried out and calibrated to sensitivity decrease by an on-chip potentiostat (IST, Switzerland). Oxygen, glucose, lactate, and glutamine fluxes were measured by calculating the change in metabolite concentration over time. Glutamine measurement allowed us to calculate lipid metabolism fluxes. Oxidative phosphorylation flux was calculated by dividing the oxygen uptake rate by six. The inventors estimated 32 ATP molecules generated by the complete oxidation of glucose. Glycolysis flux was calculated by dividing the lactate production rate by two, with the maximal rate defined by glucose uptake rate minus the oxidative phosphorylation flux. ATP production in glycolysis was estimated to be two molecules per molecule of glucose. Glutaminolysis was calculated directly by glutamine uptake. ATP production in glutaminolysis was estimated to be three molecules per molecule of lactate generated.

[2] = system: vascularized cardiac organoids; assay: Integrated metabolic-electro-mechanical sensor chip: simultaneous contraction, field potential and interstitial oxygen; settings: 10 μM KB-R7943
Protocol: The MEA design and printed connections enabled access to 45 different electrodes inside the platform intermittently via a compatible sensor circuit (FIGS. 9A-9B). Spontaneous cardiac field potentials (FPs) were recorded from cardiac organoids using an integrated signal conditioning circuit (AD8232®), with a 2-pole adjustable high-pass filter, 3-pole adjustable low-pass filter, adjustable gain, and medical instrumentation amplifiers to extract, amplify, and filter the extracellular field potential of the organoids remotely within the confined well. […] Spontaneous cardiac field potentials were measured at 100 Hz sampling rate in each microwell. Field potential rhythm frequency was calculated in real-time using a custom-made MATLAB® software imposing Fourier Transformation (FFT) on the evolving kinetic data (FIGS. 9C-9D).
Real-time oxygen measurement was performed based on previously described elements. Briefly, phosphorescent ruthenium microprobes (CPOx-50-RuP) show a decrease in phosphorescence decay time as a function of oxygen concentration, allowing to measure the oxygen content. Controlled sinusoidal modulated 532-nm LED signal excites the embedded oxygen sensors and emits a sinusoidal amplitude-modulated light at 605 nm that is shifted in phase due to oxygen quenching. A phase shift is measured between the emission hardware-filtered first detector (PMT), and a second excitation detector (cPMT). […] Measurements were carried out at a 10 Hz sampling rate. Contraction rate and oxygen rhythm frequency were calculated in real-time using a custom-made MATLAB® software imposing Fourier Transformation (FFT) on the evolving kinetic data. Using custom MATLAB code, we calculated the cardiac organoid contraction rates directly from our oxygen reader based on the emission intensity measured in peak-to-peak voltage from the oxygen bead and its displacement using the second PMT system. Cardiac displacement was measured by the embedded oxygen beads inside the cardiac organoids during a contraction. When the beads move at different distances from the focal point, changes in peak-to-peak voltage occurred leading to the detection of the contraction behavior.
For simultaneous real-time oxygen, contraction rate, and field potential measurements, cardiac organoids were cultured in RPMI supplemented with B27 minus insulin, 5 ng/ml VEGF and 0.1% DMSO (control) or 10 μM KB-R7943 mesylate. Real-time oxygen, contraction rate, and field potential were measured after 0, 15, and 25 minutes of exposure to DMSO (control) or 10 μM KB-R7943 mesylate.

[3] = system: hiPSC-derived cardiomyocytes; assay: Live imaging of mitochondrial calcium (Rhod-2AM) and visual contraction analysis in 2D culture; settings: for decrease of magnitude of [Ca2+]m oscillations / reduction of contraction magnitude: n=4
Protocol: Fast phase-contrast imaging (17 frames per second) was performed at suitable magnification using an LSM-700 Zeiss microscope. The time-lapse micrograph was analyzed using a custom MATLAB® code. Briefly, multiple regions of interest (ROIs) were selected on the cardiac tissue borders, producing a distinct area with changes representative of the cardiac contraction. Dynamic changes in the ROI intensity were measured over time and converted into beating rates using Fast Fourier Transformation (FFT). Contractility was calculated based on the frequency amplitude magnitude.
For mitochondrial calcium live imaging, different hiPSC-derived cardiomyocytes were cultured in RPMI supplemented with B27 minus insulin, and 0.1% DMSO (control) or […] KB-R7943 mesylate (Tocris Bioscieice, USA), Mean mitochondrial calcium was measured using live imaging of Rhod-2AM dye after 0, 30, and 90 seconds of exposure to DMSO (control) or 10 μM MCU inhibitor KB-R7943 mesylate
Mitochondrial calcium uptake within human iPSC-derived cardiomyocytes was measured using Rhod-2AM dye according to the manufacturer's instructions (Abcam, USA). Cells were loaded with […] Rhod-2AM in RPMI supplemented with B27-I for 30 min at 37° C., washed with PBS, and incubated with RPMI supplemented with […] KB-R7943 or 0.1% DMSO, and B27-I. Measurements were taken continuously using an incubated LSM-700 Zeiss microscope at 5% CO2 and 37° C. Rhod-2AM measurement was conducted by excitation at 552 nm at a 10 Hz sampling rate. Mitochondrial calcium uptake was calculated by the change of the mean emission intensity at 581 nm. The time-lapse micrograph was analyzed using multiple regions of interest (ROIs) and was selected based on Mitotracker staining, producing a distinct area with changes representative to mitochondrial networks. Changes in fluorescent intensity were used to determine oscillation rate and amplitude.

[4] = system: vascularized cardiac organoids; assay: Integrated metabolic-electro-mechanical sensor chip: simultaneous contraction, field potential and interstitial oxygen; settings: 10 μM KB-R7943, within 35 minutes of exposure; n=9

N=C(N)SCCc1ccc(OCc2ccc([N+](=O)[O-])cc2)cc1 [KB-R7943]
effect on ATP generation (production) [1]: decrease in ATP production; also recorded: decrease in ATP generation
effect on coupling of mitochondrial and electro-mechanical activity [2]: caused uncoupling between mitochondrial and electro-mechanical activity, resulting in arrhythmic cardiac behavior
effect on magnitude of organoid contraction and depolarization [2]: comparable and parallel decrease
effect on oxygen uptake of the cardiac organoid [2]: progressive decrease in the oxygen uptake
effect on magnitude of oxygen oscillations ([2]; n=9): significantly and progressively decreased
effect on [Ca2+]m concentration ([3]; 10 μM KB-R7943): no significant difference
decrease of magnitude of [Ca2+]m oscillations ([3]; 10 μM KB-R7943, 30 seconds): 60%
reduction of contraction magnitude ([3]; 10 μM KB-R7943, 30 seconds): 45%
decrease of magnitude of [Ca2+]m oscillations ([3]; 10 μM KB-R7943, 90 seconds): 78%
reduction of contraction magnitude ([3]; 10 μM KB-R7943, 90 seconds): 70%
effect on cardiomyocyte contractility and [Ca2+]m oscillation amplitude ([3]; 10 μM KB-R7943, acute): dramatically decreases cardiomyocyte contractility, and [Ca^2+]m oscillation amplitude; also recorded: decreases the magnitude of cardiomyocyte contraction
effect on cardiomyocyte contraction frequency (rate) ([3]; 10 μM KB-R7943, short term exposure): without affecting contraction rate; also recorded: did not significantly affect
increase of contraction frequency, oxygen oscillation rate and field potential oscillation frequency (all three rates) [4]: 2.5 fold
